{
  "source": "patent US20050089471A1",
  "about": "“Labeled ligands for lectin-like oxidized low-density lipoprotein receptor (LOX-1)” (priority 2003, published 2005)",
  "test_system": "human endothelial coronary artery cells (HCAECs) which are known in the literature to express LOX-1",
  "assay": "Fluorescent confocal imaging of labeled peptide bound to HCAECs",
  "format": "cell-based",
  "conditions": "HCAECs grown in glass slides, fluorescent confocal microscope, FIG. 2",
  "protocol": "Images in the assay may be acquired using a laser confocal microscope or an Imager. For example, images of peptides bound to cells can be obtained using a laser confocal microscope as follows: HCAE cells can be grown on high quality borosilicate 8-chambered glass slides (Electron Microscopy Sciences, Fort Washington, Pa.). Then, about 10 μL of 1 mg/ml of an aqueous solution of a labeled peptide can be added to the cells and incubated for 1 hour. Subsequently, the cells preferably are washed with HBSS buffer three times. The cells then can be fixed with 4% formaldehyde solution over 10 minutes. After a final wash with buffer, the slide is imaged. Images preferably are acquired using an OLYMPUS laser scanning confocal microscope, model Fluoview 300, using Ar-ion laser (selecting 488 nm line) and a 510-nm long-pass filter. Images can be acquired using two channels: reflected light and fluorescent mode channel, or an overlay of both channels.\nThe experimental conditions for imaging the peptide-labeled HCAECs are described previously.",
  "note": "Where no end group is shown, it is not given here. fluorescein = fluorescein (Fl)",
  "data": [
    {"substance": "Fl-KKGG-FQTPPQL (fluorescein-KKGGFQTPPQL) [peptide FQTPPQL conjugated with fluorescein via KKGG linker]", "values": [
      {"measurement": "binding to / localization on HCAECs (fluorescent image)", "result": "shown to bind"}
    ]}
  ]
}
